Test results: PubChem BioAssay AID1159557 (GlaxoSmithKline (GSK), 2015)
The source made the active and inactive calls. No rule for the calls is given here.

System: Trypanosoma brucei growth inhibition
Assay: T. brucei growth inhibition (AID 1159557);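 also: parasites exposed to compound for 48 h before the resazurin readout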

| Compound | IC50 |
| --- | --- |
| COc1ccc(S(=O)(=O)NCc2ccc(-c3ccc(CN(C)CCO)cc3)cc2)cc1 | 3.2 µM |
| COc1ccc(Nc2nccc(N(C)c3n[nH]c4c(F)cccc34)n2)cc1S(C)(=O)=O | 6.3 µM |
| COc1ccnc2[nH]cc(-c3cc(C(=O)N[C@H](CO)c4ccccc4)co3)c12 | 0.005 µM |
| NC(=O)c1ccsc1NC(=O)c1ccc([N+](=O)[O-])s1 | 0.2 µM |
| O=C(CN1CCN(c2ccccn2)CC1)Nc1cc(S(=O)(=O)N2CCCCCC2)ccc1Cl | 13 µM |
| COc1ccc(C)cc1-c1csc(NC(=O)C(C)n2ccnc2)n1 (stereo not drawn) | 25 µM |
| Cc1ccc2onc(Nc3ccnc(Nc4cccc(S(C)(=O)=O)c4)n3)c2c1 | 6.3 µM |
| O=C1NCc2cccc(Nc3nc(NC4CCC(O)CC4)ncc3Br)c21 (stereo not drawn) | 0.063 µM |
| O=S(=O)(c1cccc(CSc2nnc(-c3ccc4c(c3)OCO4)o2)c1)N1CCOCC1 | 32 µM |
| O=c1[nH]c(C=Cc2cccc(OCCOc3ccccc3)c2)nc(O)c1[N+](=O)[O-] | 10 µM |
| Cc1cc(C)n(-c2nc(NC(C)(C)C)nc(N3CCOCC3)n2)n1 | 13 µM |
| COc1ccc2ncc(=O)n(CCN3CCOC(CNCc4ccc(C(F)(F)F)cc4F)C3)c2n1 (stereo not drawn) | 0.63 µM |
| Cc1nn(-c2nc3ccccc3s2)c2c1C(c1ccc(OCC(N)=O)cc1)SCC(=O)N2 (stereo not drawn) | 0.02 µM |
| O=C(NC1CCN(C2Cc3ccc(NS(=O)(=O)c4cc(F)cc(F)c4)cc3C2)CC1)C1CC1 (stereo not drawn) | 1 µM |
| Cc1ccc2ccc(C(Nc3ccccn3)c3cccnc3)c(O)c2n1 (stereo not drawn) | 5 µM |
| N#Cc1c(Oc2cccc(Cl)c2)cccc1[N+](=O)[O-] | 0.0079 µM |
| COc1ncc(-c2ccc3nccc(-c4ccncc4)c3c2)cc1NS(C)(=O)=O | 0.32 µM |
| O=C(NC1C(=O)N(c2ccccc2)C1c1cccnc1)c1ccc(Cl)s1 (stereo not drawn) | > 40 µM (inactive) |
| Cc1ccc(C)c(OC2CCN(C(=O)C(C)n3ccnc3)CC2)c1 (stereo not drawn) | > 40 µM (inactive) |
| CNC(=O)C1Cc2ccccc2N1C(=O)Cc1ccc(OC)cc1 (stereo not drawn) | 0.4 µM |
| COc1ccc(CNc2nsc3ccccc23)cc1OC | 7.9 µM |
| Nc1nc(-c2ccccn2)nc(-n2nc(-c3ccccc3)cc2N)n1 | 1 µM |

| Compound | IC50 |
| --- | --- |
| Cc1cc(Br)cc(C(=O)c2c(C(C)C)c(=O)[nH]c(=O)n2Cc2ccnc(N)c2)c1 | 13 µM |
| CCc1cc(C(=O)Nc2nccn2-c2ccccc2)cs1 | 3.2 µM |
| CC(CNS(=O)(=O)c1ccc(OC(F)F)cc1)c1ccc(NC(=O)c2ccncc2)cc1 (stereo not drawn) | 7.9 µM |
| CNc1nc(C)nc(N2CCc3cc(C(=O)NCc4ccc(-c5ccn[nH]5)cc4Cl)ccc32)n1 | 13 µM |
| CCC(=O)N1N=C(c2ccc3c(c2)CCCC3)Sc2c1ncn2C(=O)CC | 16 µM |
| NC(=O)c1ncccc1Nc1nc(NC2CCC(O)CC2)ncc1Br (stereo not drawn) | 0.32 µM |
| COc1cc(Nc2nccc(Nc3onc(C)c3C)n2)cc(S(=O)(=O)C2CCOCC2)c1 | 0.5 µM |
| CC(C)(C)c1csc(NC(=O)c2ccc([N+](=O)[O-])s2)n1 | 0.2 µM |
| COc1ccc(S(=O)(=O)Nc2ccc(CN3CCN(C(=O)c4cccc(C#N)c4)CC3)cc2)cc1 | 0.4 µM |
| Cc1nc(N2CC(C)OC(C)C2)sc1C(=O)Nc1ccc2c(c1)OCO2 (stereo not drawn) | 40 µM |
| CN(Cc1nc2c(C(=O)N3CCN(Cc4ccccc4)CC3)cccc2[nH]1)C1CCCc2cccnc21 (stereo not drawn) | 0.63 µM |
| CC1(C)CCC(=Cc2ccc(Cl)cc2)CC1(O)Cn1ccnc1 (stereo not drawn) | 10 µM |
| O=C(O)[C@H]1C[C@@H]1c1ccc(-c2ccc(CN(CCc3ccccn3)C(=O)C3CCC3)cc2)cc1 | 0.63 µM |
| O=C(Nc1nc2ccccc2[nH]1)c1ccc2nc[nH]c2c1 | > 40 µM (inactive) |
| O=C1CSC(c2cccnc2)N1c1ccc(Cl)cc1Cl (stereo not drawn) | > 40 µM (inactive) |
| Cc1cccc(N2CCCN(Cc3c[nH]c4ccccc34)CC2)n1 | 13 µM |
| COc1cccc(C(=O)[C@H]2C[C@@H]2CN(Cc2cccnc2)Cc2cccnc2)c1 | 32 µM |
| CCN(CC)c1nc(N(C)C)nc2c1CN(Cc1ccccc1)CC2 | 20 µM |
| Cn1c(CN2CCN(c3ncc(C(F)(F)F)cc3Cl)CC2)nc2ccncc21 | 6.3 µM |
| NC(=O)c1ccc(-c2cccc(OCCN3CCN(C4CCCCC4)CC3)c2)cc1 | 16 µM |
| CC1CCCCN1C(=O)NCCc1coc(-c2ccc(F)cc2)n1 (stereo not drawn) | 0.13 µM |
| COc1ccc2ncc(F)c(NC(=O)C3(O)CCC(NCc4ccc5c(c4)OCCO5)CC3)c2n1 (stereo not drawn) | 0.79 µM |

| Compound | IC50 |
| --- | --- |
| CN(CC1CCCO1)S(=O)(=O)c1ccc(C(=O)Nc2nc(-c3ccccn3)cs2)cc1 (stereo not drawn) | 0.5 µM |
| Cc1ccc(NC(=O)c2ccc(Cl)c(NC(=O)c3ccc([N+](=O)[O-])cc3)c2)cc1 | 7.9 µM |
| CC(CCc1ccccc1)NC(=O)CN(Cc1ccccn1)Cc1ccccn1 (stereo not drawn) | 10 µM |
| O=C(NCCc1ccccc1Cl)c1cccn1-c1cccnc1 | 32 µM |
| C=CCOCC1Cn2nc([N+](=O)[O-])nc2O1 (stereo not drawn) | > 40 µM (inactive) |
| COc1ccc(-c2ccc3nnc(-c4ccc(O)c(OC)c4)n3c2)cn1 | 2 µM |
| N#Cc1ccc(S(=O)(=O)N2CCC3(CCN(c4ccccc4)C3=O)CC2)cc1 | > 40 µM (inactive) |
| O=C(NCc1nnc2n1CCCCC2)c1ccc(-c2ccc(F)cc2)o1 | 0.13 µM |
| CCCCn1c(=O)c2c(N)onc2n(CCCC)c1=O | 0.63 µM |
| CC(C)(C)C(Cn1ccnc1)NC(=O)c1ccc2nc(C3CC3)oc2c1 (stereo not drawn) | > 40 µM (inactive) |
| COc1cccc(C(=O)[C@H]2C[C@@H]2CN(Cc2ccccn2)Cc2ccccn2)c1 | 16 µM |
| CN1CCC(N(C)c2nccc(N3CCN(C(=O)c4cccc(-c5cccnc5)c4)CC3)n2)CC1 | 0.79 µM |
| O=S(=O)(c1ccccc1C(F)(F)F)N1CCN(Cc2ccc(-n3ccnc3)cc2)CC1 | > 40 µM (inactive) |
| COc1ccccc1C=CCN1C[C@H]2CCC[C@@H](C1)C2(O)c1cccnc1 (stereo partly drawn) | > 40 µM (inactive) |
| O=C(Nc1ccc(-c2nc3ccccc3c(=O)[nH]2)cc1)c1cccs1 | 0.25 µM |
| CN(Cc1ccc(C(N)=O)cc1)C(c1ccc(F)cc1)c1cccnc1 (stereo not drawn) | > 40 µM (inactive) |
| O=C(CC1(O)C(=O)N(Cc2cccs2)c2ccc(Br)cc21)c1cccnc1 (stereo not drawn) | 0.63 µM |
| Cc1cc(N(C)C)nc(Nc2ccccc2C)n1 | 32 µM |
| Cc1cc(Nc2ccc(C#N)c(Cl)c2C)n[nH]1 | 0.0079 µM |
| OCCCNc1nc(Nc2ccncc2)nc2ccccc12 | 25 µM |
| COc1cccc(CCNC(=O)C(c2cn[nH]c2)N2CCN(c3ccc(Cl)cc3)CC2)c1 (stereo not drawn) | 20 µM |
| Cc1ccccc1NS(=O)(=O)c1ccc2[nH]cc(C(=O)NC3CCCC3)c(=O)c2c1 | 0.32 µM |

| Compound | IC50 |
| --- | --- |
| O=C(Nc1cccc(S(=O)(=O)Nc2ccc(Br)cc2)c1)c1ccc([N+](=O)[O-])s1 | 0.2 µM |
| COc1ccc2nccc([C@H](O)CN3CC[C@H](NC(=O)c4ccc(Br)cc4)[C@@H](O)C3)c2n1 | 0.2 µM |
| COc1ccc2ncc(=O)n(CCN3CC[C@H](NCc4ncc(Cl)c5[nH]ncc45)[C@H](O)C3)c2n1 | 0.32 µM |
| CC(C)Oc1ccc(C(=O)Nc2ccc(N3CCOCC3)c(Cl)c2)cc1 | 13 µM |
| Cc1ccccc1OCC(=O)N1CCCN(c2cccnn2)CC1 | > 40 µM (inactive) |
| COc1ccc(Nc2nc(-c3ccccn3)cc(N3CCCC(O)C3)n2)cc1 (stereo not drawn) | 4 µM |
| Cc1nc2nc(C)c(Cc3ccc(C(C)C)cc3)c(=O)n2[nH]1 | > 40 µM (inactive) |
| COc1ccc(Nc2nc(NC3CCC(O)CC3)ncc2Br)c(C(N)=O)c1 (stereo not drawn) | 0.1 µM |
| Cn1nccc1NC(=O)Cn1ccc(-c2ccncc2)n1 | 0.63 µM |
| CCCn1c(NC(=O)CCn2cc(Br)cn2)nc2ccccc21 | 7.9 µM |
| CC(C(=O)Nc1ccccc1F)N(C)CC(=O)Nc1cccc2ccccc12 (stereo not drawn) | 25 µM |
| NCC(Cc1ccccc1)NC(=O)c1cnc(-c2c[nH]c3ncccc23)s1 (stereo not drawn) | 0.4 µM |
| CCC(CC)C(=O)Nc1ccc(-c2nnc(-c3ccc(OC)cc3)o2)cc1 | 0.5 µM |
| O=C1OCc2ccc(Nc3nccc(-c4cnn5ncccc45)n3)cc21 | 0.004 µM |
| Cc1ccc(C)c(-n2nnnc2Sc2nc([N+](=O)[O-])nn2C)c1 | 13 µM |
| NS(=O)(=O)c1ccc(CNC(=O)c2ccc([N+](=O)[O-])s2)cc1 | 0.25 µM |
| O=C(Nc1nc(-c2ccccn2)cs1)N1C[C@H]2C[C@@]2(c2ccccc2)C1 | 0.5 µM |
| c1ccc2[nH]c(-c3ccc(N4CCCC4)nc3)nc2c1 | 0.79 µM |
| COc1ccc2nc(N(Cc3cccnc3)C(=O)C3CCC3)sc2c1 | 20 µM |
| Cc1cc(C)c(C#N)c(SCC(=O)c2ccc3c(c2)OCO3)n1 | 20 µM |
| CCCNC(=O)Nc1cccc(-c2nc3ncccc3o2)c1 | 0.5 µM |
| Cc1cc(-c2cccc3ccccc23)nc2nc(N)nc(N)c12 | 32 µM |

| Compound | IC50 |
| --- | --- |
| Cc1cc(=O)n2nc(Oc3ccc(C#N)cc3Cl)sc2n1 | 0.63 µM |
| CCS(=O)(=O)c1cccc(C(=O)Nc2nc(-c3ccccn3)cs2)c1 | 0.5 µM |
| COc1ccc2c(Cl)c(C(=O)N3CCC3)sc2c1Cl | 20 µM |
| CCC(=O)Nc1ccccc1C(=O)Nc1ccccn1 | 0.32 µM |
| CC1CN(S(=O)(=O)c2ccc(NC(=O)c3cc(C4CC4)nc4c3cnn4C(C)C)cc2)CC(C)O1 (stereo not drawn) | 6.3 µM |
| O=c1ccn(-c2ccc([N+](=O)[O-])cc2Cl)c2ccc(F)cc12 | 25 µM |
| COc1ccc(-c2cnc(NC(=O)c3cc(-c4ccccn4)n[nH]3)n2C)cc1 | 0.4 µM |
| Oc1cccnc1-c1n[nH]c(Cc2ccccc2)n1 | 5 µM |
| CN(Cc1nc2ccccc2s1)C(=O)C=Cc1cc2ccccc2o1 | 32 µM |
| N#Cc1cccc(CNc2ccc(-c3cnn(CC4CC4)c(=O)c3C#N)cc2)c1 | 10 µM |
| Fc1ccc(Nc2nc(-c3ccccn3)cs2)cc1 | 25 µM |
| CN(C(=O)Nc1ccc2c(c1)CCN(C1CCC1)CC2)c1ccc(C#N)cc1 | 0.2 µM |
| Cn1cc(CN2CCN(c3ccc4c(c3)CCN(C(=O)[C@H]3C[C@@H]3c3ccccc3)CC4)CC2)cn1 | 25 µM |
| COc1cc(-c2nc(N3CCOCC3)sc2-c2ccnc(NC3CCOCC3)n2)ccc1Cl | 16 µM |
| CC(=O)Nc1ccc(-c2csc(NC(=O)c3ccc([N+](=O)[O-])s3)n2)cc1 | 0.025 µM |
| CCOc1ccc2nc(NC(=O)c3ccc([N+](=O)[O-])s3)sc2c1 | 1.3 µM |
| COc1ccc(C(=O)N2CCC(Nc3cccnc3)C2)c(OC)n1 (stereo not drawn) | > 40 µM (inactive) |
| CC(=O)Nc1ccc(-c2cnc(N)c(-c3nc4ccc(F)cc4[nH]3)c2)cc1 | 0.63 µM |
| COc1ccc(C(C)(C)C)cc1S(=O)(=O)n1ccnc1 | 40 µM |
| CCOc1ccc(NC(=O)c2ccc(NC(=O)NC3CCCCC3)cc2)cc1 | 0.2 µM |
